Data on ten molecules can be found in patent US11667630B2, “Nitrogen-containing 6-membered cyclic compound” (Asahi Kasei Pharma Corporation, priority 2017, dated 2023).

The term EC50 denotes the concentration that produces a half-maximal response.

One assay relates to rat femur. Nature of the assay: Neo-osteogenesis action in rat femur. To be noted: female SD rats, one week after administration; for Bone mineral content of femur 1/3 center region (mg) Left femur (administered with compound): 100 μg test compound in in situ-solidified gel solution injected between quadriceps and periosteum; for Bone mineral content of femur 1/3 center region (mg) Right femur (no administration of compound): contralateral femur, 100 μg test compound given at left femur. It counts as in vivo. On the procedure:
Eight weeks old female SD rats (Charles River Japan) were fixed in the side lying position under triple anesthesia (medetomidine hydrochloride, midazolam, and butorphanol tartrate). After hair of the left femoral region was shaved with a hair clipper, and disinfection treatment was performed with 70% ethanol, an in situ-solidified gel solution of a test compound, specifically, a test compound dissolved in poly(lactic-co-glycolic acid) (RESOMER RG502H, produced by Evonik Industries)/poly(lactic-co-glycolic acid)-polyethylene glycol block copolymer (5050 DLG mPEG 5000, produced by Lakeshore Biomaterials)/N-methyl-2-pyrroridone (produced by Wako) (weight ratio 47%/3%/50%), was filled in a 1-mL syringe, a 21G injection needle was attached to the syringe, and the needle was transdermally stabbed from the quadriceps to the periosteum near the center of the femoral diaphyseal. Then, 100 μg as the amount of the test compound, or 50 μL as the administration volume of the solution was injected between the quadriceps and the periosteum, and the injection needle was drawn out. To the rats of the control group, the aforementioned in situ-solidified gel solution alone was administered. One week after the administration of the drug solution, the triple anesthesia was given to the animals, and they were fixed in the supine position, and euthanized by bleeding. […], circumferential tissues such as muscles were removed, the bone mineral content of the whole femur was measured by using a bone mineral analyzer DCS-600EX (produced by ALOKA), then it was divided into three portions along the long axis, and the bone mineral content of the center part (diaphysis) was evaluated. The test was performed with the groups each consisting of 6 animals.

A further assay deals with human EP4 receptor (Homo sapiens, UniProt P35408). Put plainly: Measurement of EP4 agonist activity (cAMP production). It counts as cell-based. More on the design: expressed in transfected cells; host or cells: HEK293. To be noted: cAMP production in HEK293 cells stably expressing human EP4 receptor; average values where measured two or more times. On the procedure:
In order to investigate EP4 receptor agonist activity of the compounds of the present invention, production of cAMP was measured in HEK293 cells that were made to stably express the human EP4 receptor.
By using Refseq Database, prostaglandin E receptor was searched for. As a result, gene information of human EP4 (NM_000958) receptor was obtained. On the basis of this sequence information, the human EP4 receptor gene was cloned by PCR in a conventional manner using human cDNA as the template, and HEK293 cells that were made to stably express the human EP4 receptor were established. When cryopreserved cells of this strain were thawed and used, cells subcultured three times or more within a certain period of time (about 1 to 2 weeks) by using Dulbecco's Modified Eagle's Medium (Dulbecco's Modified Eagle's Medium may be henceforth abbreviated as DMEM) containing 10% FBS, 50 units each of penicillin and streptomycin were used. The subcultured cells were inoculated in wells of a poly-D-lysine-coated 96-well plate at a density of 2×10^4 to 2.5×10^4 cells/well, and cultured for one day. The medium in the wells was removed by suction, then DMEM (80 μL) was added to each well, and incubation was performed at 37° C. for 15 minutes. […] The reaction was allowed at 37° C. for 30 minutes, then the medium was removed by suction, Assay/Lysis Buffer (100 μL) contained in cAMP Screen Kit (produced by Applied Biosystems) was added to terminate the reaction. Then, the reaction mixture was incubated at 37° C. for 30 minutes to prepare a sample for quantification of cAMP, and the amount of cAMP in the sample was quantified according to the method indicated in cAMP Screen Kit. By non-linear regression of the compound concentration and the amount of cAMP, the concentration of the compound required for increasing cAMP to 50% of the maximum increase (EC50 value) was calculated by using the Kaleida Graph.

human EP4 receptor, sequence (P35408 whole entry): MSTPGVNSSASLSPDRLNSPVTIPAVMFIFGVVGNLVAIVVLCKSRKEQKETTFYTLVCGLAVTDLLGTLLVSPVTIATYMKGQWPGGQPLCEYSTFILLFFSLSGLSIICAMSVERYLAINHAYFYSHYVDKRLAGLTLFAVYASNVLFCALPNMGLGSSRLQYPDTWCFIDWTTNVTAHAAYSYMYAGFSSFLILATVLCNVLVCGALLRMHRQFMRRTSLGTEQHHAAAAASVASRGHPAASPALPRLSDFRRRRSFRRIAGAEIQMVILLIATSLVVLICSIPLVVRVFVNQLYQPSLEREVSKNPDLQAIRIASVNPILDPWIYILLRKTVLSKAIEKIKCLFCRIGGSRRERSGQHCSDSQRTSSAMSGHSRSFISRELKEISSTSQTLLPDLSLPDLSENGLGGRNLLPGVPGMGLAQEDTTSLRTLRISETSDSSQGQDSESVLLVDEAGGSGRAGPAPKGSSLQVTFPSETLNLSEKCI

For the molecule `O=C(O)c1ccc(CCN2C(=O)SCCN2CCC(O)Cc2ccc(F)c(C#Cc3ccsc3)c2)s1` (centres unmarked) [Example 20, 5-(2-(4-(4-(4-Fluoro-3-(thiophen-3-ylethynyl)phenyl)-3-hydroxybutyl)-2-oxo-1,3,4-thiadiazinan-3-yl)ethyl)thiophene-2-carboxylic acid], in the assay on rat femur, the “Bone mineral content of femur 1/3 center region (mg) Left femur (administered with compound)” value is 79.4 ± 5.2 mg and the “Bone mineral content of femur 1/3 center region (mg) Right femur (no administration of compound)” value was found to be 58.7 ± 3.6 mg. This molecule returned an EC50 at human EP4 receptor of 0.07 nM.
As for `O=C(O)c1ccc(CCN2C(=O)SCCN2CCC(O)Cc2cccc(C#Cc3cccs3)c2)s1` (centres unmarked) [Example 3, 5-(2-(4-(3-Hydroxy-4-(3-(thiophen-2-ylethynyl)phenyl)butyl)-2-oxo-1,3,4-thiadiazinan-3-yl)ethyl)thiophene-2-carboxylic acid], in the assay on rat femur, the “Bone mineral content of femur 1/3 center region (mg) Left femur (administered with compound)” value was found to be 80.2 ± 2.6 mg and the “Bone mineral content of femur 1/3 center region (mg) Right femur (no administration of compound)” value is reported as 66.7 ± 2.7 mg. Further, the EC50 on human EP4 receptor is 0.13 nM.
With `N#Cc1sccc1C#Cc1cccc(C[C@H](O)CCN2CCSC(=O)N2CCc2ccc(C(=O)O)s2)c1` [Example 24, (S)-5-(2-(4-(4-(3-((2-Cyanothiophen-3-yl)ethynyl)phenyl)-3-hydroxybutyl)-2-oxo-1,3,4-thiadiazinan-3-yl)ethyl)thiophene-2-carboxylic acid], the “Bone mineral content of femur 1/3 center region (mg) Left femur (administered with compound)” value with rat femur is 80.7 ± 4.0 mg.
On the same count and under the same terms, next, `N#Cc1sccc1C#Cc1cccc(CC(O)CCN2CCSC(=O)N2CCc2ccc(C(=O)O)s2)c1` (centres unmarked) [Example 8, 5-(2-(4-(4-(3-((2-Cyanothiophen-3-yl)ethynyl)phenyl)-3-hydroxybutyl)-2-oxo-1,3,4-thiadiazinan-3-yl)ethyl)thiophene-2-carboxylic acid]: 98.7 ± 4.1 mg.
Molecule `Cc1ccc(CC(O)CCN2CCSC(=O)N2CCc2ccc(C(=O)O)s2)cc1C#Cc1ccsc1` (centres unmarked) [Example 18, 5-(2-(4-(3-Hydroxy-4-(4-methyl-3-(thiophen-3-ylethynyl)phenyl)butyl)-2-oxo-1,3,4-thiadiazinan-3-yl)ethyl)thiophene-2-carboxylic acid] had an EC50 at human EP4 receptor of 0.1 nM.
Still for that read-out and setting: next, `O=C(O)c1ccc(CCN2C(=O)SCCN2CCC(O)Cc2cccc(C#Cc3cscn3)c2)s1` (centres unmarked) [Example 9, 5-(2-(4-(3-Hydroxy-4-(3-(thiazol-4-ylethynyl)phenyl)butyl)-2-oxo-1,3,4-thiadiazinan-3-yl)ethyl)thiophene-2-carboxylic acid]: 0.09 nM; `N#Cc1ccsc1C#Cc1cccc(CC(O)CCN2CCSC(=O)N2CCc2ccc(C(=O)O)s2)c1` (centres unmarked) [Example 14, 5-(2-(4-(4-(3-((3-Cyanothiophen-2-yl)ethynyl)phenyl)-3-hydroxybutyl)-2-oxo-1,3,4-thiadiazinan-3-yl)ethyl)thiophene-2-carboxylic acid]: 0.3 nM; `O=C(O)c1ccc(CCN2C(=O)SCCN2CCC(O)Cc2cccc(C#Cc3ccsc3Cl)c2)s1` (centres unmarked) [Example 5, 5-(2-(4-(4-(3-((2-Chlorothiophen-3-yl)ethynyl)phenyl)-3-hydroxybutyl)-2-oxo-1,3,4-thiadiazinan-3-yl)ethyl)thiophene-2-carboxylic acid]: 0.3 nM.
With `O=C(O)c1ccc(CCN2C(=O)SCCN2CCC(O)Cc2cccc(C#Cc3ccccc3)c2)s1` (centres unmarked) [Example 15, 5-(2-(4-(3-Hydroxy-4-(3-(phenylethynyl)phenyl)butyl)-2-oxo-1,3,4-thiadiazinan-3-yl)ethyl)thiophene-2-carboxylic acid], the response on human EP4 receptor was half-maximal at 0.63 nM (EC50).
Still for that read-out and setting: the result for `O=C(O)c1ccc(CCN2C(=O)OCCN2CCC(O)Cc2cccc(C#Cc3ccsc3)c2)s1` (centres unmarked) [Example 29, 5-(2-(4-(3-Hydroxy-4-(3-(thiophen-3-ylethynyl)phenyl)butyl)-2-oxo-1,3,4-oxadiazinan-3-yl)ethyl)thiophene-2-carboxylic acid] reads 0.16 nM.
